The values below come from patent US20120195978A1, “CAPCNA PEPTIDE THERAPEUTICS FOR CANCER” (Indiana University Research and Technology Corpora, priority 2009, published 2012).

Data set [1] relates to HCC1937 cells lacking BRCA1. Kind of data set: MTT assay, caPCNA peptides alone and in combination with cisplatin. The data set is classed as cell-based, human. Here is the method: Breast cancer cells were obtained from a patient harboring a hereditary mutation in BRCA1, a major component of DNA double strand break repair (HCC1937 cells). HCC1937 is a near-tetraploid cell line from mammary gland whose cells are homozygous for a frameshift mutation in BRCA1. The cell line is available at ATCC.
MTT [3-(4,5-dimethylthiazol-2-yl)-2,5-diphenyltetrazolium bromide] assays were conducted with caPCNA peptides at a variety of time points both alone and in combination with a DNA damaging agent e.g., cisplatin in HCC1937 and HCC1937+wild-type BRCA1 cells. The MTT assay is based on the ability of a mitochondrial dehydrogenase enzyme from viable cells to cleave the tetrazolium rings of the pale yellow MTT dye and form dark blue formazan crystals. These formazan crystals are largely impermeable to cell membranes and thus accumulate within healthy cells. Solubilization of the cells by the addition of a detergent results in the liberation and solubilization of the crystals. The number of proliferating cells is directly proportional to the level of formazan product created. The color can then be quantified using a simple colorimetric assay. The results are read on a multiwall scanning spectrophotometer (ELISA reader). The peptides used in these experiments including caPCNA peptide, Q131A ([…] (SEQ ID NO: 5)), and P129A ([…] (SEQ ID NO: 3)) were ordered and obtained from Anaspec (Fremont, Calif.). ca PCNA peptide was dissolved in sterile 1×PBS solution to create a 1.5 mM stock concentration. caPCNA peptides with alanine substitutions (e.g., P129A (SEQ ID NO: 3) and Q131A (SEQ ID NO: 5)) were dissolved in sterile 1×PBS solution to create 1.0 mM stock solutions.
MTT assays: The efficacy of caPCNA peptides (caPeptides) were tested using the MTT assays: HCC1937 and HCC137+wildtype BRCA1 cells were grown in DMEM 1× (supplemented with 10% fetal bovine serum and 5% penicillin/streptomycin) and were plated at a densities of 5.5×10^3 or 7×10^3, respectively, in 96 well plates (100 μL total volume per well) and allowed to attach overnight in a 37° C. incubator (5% CO2). Then, caPCNA peptide stock solution was diluted to final working concentrations in DMEM 1× (10% fetal bovine serum and 5% penicillin/streptomycin) of 150 μM, 100 μM, 75 μM, 50 and 25 μM. Media was removed from cells and replaced with media containing caPCNA peptide at various concentrations (200 μL total volume per well). Cells were cultured with caPCNA peptide-containing media for 24, 48 or 72 hours. At the appropriate treatment timepoint, 20 μL MTT (5 mg/mL in PBS) reagent was added to each well and plates were incubated for an additional 4 hours. Media/dye solution was then aspirated and 200 μL DMSO was added to each well. Plates were rocked at room temperature for five minutes to dissolve crystals and transferred to an ELISA plate reader. Absorbance was measured at 550 nm. The extent to which caPeptides inhibited cell proliferation was calculated as a percentage of the absorbance in each well containing caPCNA peptide relative to wells containing no caPCNA peptide (negative control) for both HCC1937 and HCC1937+wild-type BRCA1 cells.
Efficacy of P129A (SEQ ID NO: 3) and Q131A (SEQ ID NO: 5) caPCNA peptides: Cells were cultured and plated in 96 well plates as described herein. P129A (SEQ ID NO: 3) or Q131A (SEQ ID NO: 5) stock solution was diluted to final working concentrations in DMEM 1× (10% fetal bovine serum and 5% penicillin/streptomycin) of 100 μM, 75 μM, 50 μM, 25 μM, and 12.5 μM. Media was removed from cells and replaced with media containing P129A (SEQ ID NO: 3) or Q131A (SEQ ID NO: 5) caPCNA peptides at various concentrations (200 μL total volume per well) and cells were cultured with peptide-containing media for 24 hours. After 24 hours, the MTT assay was completed and data analysis was performed as described herein. […]
In general terms: Tetrazolium assays rely on reduction of a dye to a coloured formazan, in cell work by metabolically active cells.

The next data set relates to MCF 10A (non-malignant). The data set is described as follows: Preferential killing of cancer cells by R9-caPeptide. The data set is classed as cell-based.
The test system of a further data set is MCF 7 (breast cancer). Described as above. The data set is classed as cell-based.
In a further data set the test system is U937 cells. Kind of data set: Cytotoxic effects of R9-linked caPCNA peptides, % cell death by flow cytometry. The data set is classed as cell-based. As to conditions: for Effect of alanine substitution on cytotoxic action of the peptide (in words): compared with unsubstituted R9-caPCNA peptide. The procedure: R9 refers to a cell penetrating peptide that includes a polyarginine sequence e.g., nine contiguous arginine residues. Alanine substitutions in the caPCNA peptide affect its cytotoxic action. U937 cells were treated with each alanine substituted peptide and the scrambled peptide and % cell death evaluated by flow cytometry.
(A flow cytometer gives signals particle by particle.)

For a further data set, the system named is HCC1937 cells. The data set is described as follows: Clonogenic survival assay after caPCNA peptide treatment. Type of data set: cell-based, human. As to conditions: 100 μM peptide for 48 hours, 13 days growth; effect more pronounced than in cells with wild-type BRCA1. The procedure:
(§1) Clonogeizic survival assay: Clonogenic survival after caPCNA peptide treatment: The purpose of this experiment was to determine the effects of high caPCNA peptide treatment (100 μM caPCNA peptide for 48 hours) on ability of cells plated at low density to proliferate and form colonies. HCC1937 and HCC1937+wild-type BRCA1 cells were plated in 6-well plates and allowed to attach overnight at 37° C.
(§2) Then, media was removed and replaced with 100 μM caPCNA peptide in DMEM 1× (10% fetal bovine serum and 5% penicillin/streptomycin). Untreated cells were used as a negative control. Plates were incubated with media containing peptide for 48 hours. Live cells were then collected, counted, plated at low density ([…] cells in 10 cm2 dishes) and allowed to grow in DMEM 1× (20% fetal bovine serum, 5% penicillin/streptomycin) for 13 days. After 13-day incubation, media was removed and plates were washed twice with 1×PBS. Cells were fixed with 70% EtOH for 10 minutes, dried, and stained for 1 hour with 20% Giemsa diluted in MilliQ water. Dye was removed; plates were rinsed, dried overnight and photographed. Images shown are representative of results obtained for treated and untreated HCC1937 and HCC1937+wild-type BRCA1 cells.

For data set [2], the system named is HCC1937+wild-type BRCA1 cells. The description is as above. Type of data set: cell-based, human. As to conditions: 100 μM peptide for 48 hours, 13 days growth. The procedure: as §1, §2
Data set [3] relates to HCC1937+wild-type BRCA1 cells. The data set is described as follows: MTT assay, caPCNA peptides alone and in combination with cisplatin. Type of data set: cell-based, human. Here is the method:
As a genetically matched control, wild-type BRCA1 has been transduced into HCC1937 cells (referred to as HCC1937+wild-type BRCA1). HCC1937+wild-type BRCA1 cells were selected for maintenance of the vector using 1 μg/mL puromycin. All cells in these assays were used at passage numbers <25.
MTT [3-(4,5-dimethylthiazol-2-yl)-2,5-diphenyltetrazolium bromide] assays were conducted with caPCNA peptides at a variety of time points both alone and in combination with a DNA damaging agent e.g., cisplatin in HCC1937 and HCC1937+wild-type BRCA1 cells. […] The color can then be quantified using a simple colorimetric assay. The results are read on a multiwall scanning spectrophotometer (ELISA reader). […]
MTT assays: The efficacy of caPCNA peptides (caPeptides) were tested using the MTT assays: HCC1937 and HCC137+wildtype BRCA1 cells were grown in DMEM 1× (supplemented with 10% fetal bovine serum and 5% penicillin/streptomycin) and were plated at a densities of 5.5×10^3 or 7×10^3, respectively, in 96 well plates (100 μL total volume per well) and allowed to attach overnight in a 37° C. incubator (5% CO2). […] Plates were rocked at room temperature for five minutes to dissolve crystals and transferred to an ELISA plate reader. Absorbance was measured at 550 nm. […]

[4] abbreviates: HCC1937 and HCC1937+wild-type BRCA1 cells, 24 hours.

No end group written: not given here.

On to LGIPEAEY [Peptide Q131A], for which, in data set [1] (setting [4]), the “Efficacy in comparison to wild-type peptides (MTT)” value is given as “enhanced efficacy” and the “Rank of efficacy among the peptides tested (MTT)” value is “appears to be more effective of these peptides tested”.

For the molecule “R9-caPeptide: R9 (nonaarginine)-linked caPCNA peptide of Table 6; exact sequence not printed there (LGIPEQEY; also: linked to nonaarginine (R9), site not given here; UniProt P12004 126-133, looked up, fragment) [Peptide R9-caPeptide]”, the “% Dead Cells” value with MCF 10A (non-malignant) is 18.2%; in the data set with MCF 7 (breast cancer), 91.5%.

Regarding “A5-sub. Peptide: R9-linked caPCNA 126-133 peptide with alanine at position 5, E130 (SEQ ID NO: 63) (RRRRRRRRRLGIPAQEY; R9 linked)”, the “Effect of alanine substitution on cytotoxic action of the peptide (in words)” value (from here on “Effect of alanine substitution”) in the data set on U937 cells is listed as “neutral change”.

Take “A2-sub. Peptide: R9-linked caPCNA 126-133 peptide with alanine at position 2, G127 (SEQ ID NO: 60) (RRRRRRRRRLAIPEQEY; R9 linked)”: the “Effect of alanine substitution” value with U937 cells is “neutral change”.

“A3-sub. Peptide: R9-linked caPCNA 126-133 peptide with alanine at position 3, I128 (SEQ ID NO: 61) (RRRRRRRRRLGAPEQEY; R9 linked)”: in the data set on U937 cells, the “Effect of alanine substitution” value is given as “decrease in cytotoxic action but not to the levels of aa126 or aa133”.

Take “A4-sub. Peptide: R9-linked caPCNA 126-133 peptide with alanine at position 4, P129 (SEQ ID NO: 62) (RRRRRRRRRLGIAEQEY; R9 linked)”: the “Effect of alanine substitution” value in the data set with U937 cells is “increase in cytotoxicity”.

With “Unsub. Peptide: R9-linked caPCNA 126-133 peptide LGIPEQEY, unsubstituted (SEQ ID NO: 58) (RRRRRRRRRLGIPEQEY; R9 linked)”, the “% cancer cell death” value with U937 cells (flow cytometry) came out at 43 ± 10%.

For LGIAEQEY [Peptide P129A], the “Efficacy in comparison to wild-type peptides (MTT)” value in data set [1] (setting [4]) is “enhanced efficacy”.

“A8-sub. Peptide: R9-linked caPCNA 126-133 peptide with alanine at position 8, Y133 (SEQ ID NO: 66) (RRRRRRRRRLGIPEQEA; R9 linked)”: the “Effect of alanine substitution” value in the data set on U937 cells is recorded as “reduced cytotoxic activity”.

Consider “A7-sub. Peptide: R9-linked caPCNA 126-133 peptide with alanine at position 7, E132 (SEQ ID NO: 65) (RRRRRRRRRLGIPEQAY; R9 linked)”, for which the “Effect of alanine substitution” value in the data set with U937 cells was “increase in cytotoxicity”.

On to “A6-sub. Peptide: R9-linked caPCNA 126-133 peptide with alanine at position 6, Q131 (SEQ ID NO: 64) (RRRRRRRRRLGIPEAEY; R9 linked)”, for which, in the data set on U937 cells, the “Effect of alanine substitution” value is “increase in cytotoxicity”.

Turning to “caPCNA peptide: caPCNA-derived peptide (aa 126-133) obtained from Anaspec; the figure legends call it R9-caPCNA / R9-PCNA peptide (LGIPEQEY; also: R9 (nonaarginine) linked, site not given here; UniProt P12004 126-133, looked up, fragment)”, in data set [1] (HCC1937 in comparison to HCC1937+wild-type BRCA1 cells, 24, 48 and 72 hour treatment), the “Sensitivity of cells to caPCNA peptides (MTT)” value is recorded as “trend of increased sensitivity”. Moreover, the Colony formation result (with HCC1937 cells; in data set [2]) was “inhibits colony formation” throughout.

On to “A1-sub. Peptide: R9-linked caPCNA 126-133 peptide with alanine at position 1, L126 (SEQ ID NO: 59) (RRRRRRRRRAGIPEQEY; R9 linked)”, for which the “Effect of alanine substitution” value in the data set on U937 cells is reported as “reduced cytotoxic activity”.

The IC50 is the concentration at which inhibition is half-maximal. Take `N.N.[Cl][Pt][Cl]` [cisplatin, reference compound]: the IC50 was approximately 155 µM in data set [1] (HCC1937 cells lacking BRCA1, cisplatin alone, FIG. 4A, read-out: IC50 value for cisplatin alone (growth inhibition)) and more than 200 µM in data set [3] (HCC1937 cells with BRCA1, cisplatin alone, FIG. 4B, read-out: IC50 value for cisplatin alone (growth inhibition)). For the same molecule, the “Sensitivity of cells to cisplatin (MTT)” value in data set [1] (HCC1937 cells, FIG. 3A) was “relatively resistant”; in data set [3] (HCC1937+wild-type BRCA1 cells, FIG. 3B), “relatively resistant”.
